Measurements taken from patent publication US7276502B2, “Thiazoles useful as inhibitors of protein kinases” (Vertex Pharmaceuticals Incorporated, priority 2003, dated 2007).
Like-named read-outs stand apart in the source and are kept apart here.

What was measured:
[1] = target: SYK (Homo sapiens, UniProt P43405); assay: SYK inhibition assay (standard coupled enzyme assay); type: biochemical
Method: Reactions were carried out in 100 mM HEPES (pH 7.5), 10 mM MgCl2, 25 mM NaCl, 1 mM DTT and 1.5% DMSO. Final substrate concentrations in the assay were 200 μM ATP (Sigma chemical Co.) and 4 μM poly Gly-Tyr peptide (Sigma Chemical Co.). Assays were carried out at 30° C. and 200 nM SYK. Final concentrations of the components of the coupled enzyme system were 2.5 mM phosphoenolpyruvate, 300 μM NADH, 30 μg/ml pyruvate kinase and 10 μg/ml lactate dehydrogenase.
An assay stock buffer solution was prepared containing all of the reagents listed above, with the exception of SYK, DTT, and the test compound of interest of the present invention. 56 μl of the test reaction was placed in a 96 well plate followed by the addition of 1 μl of 2 mM DMSO stock containing the test compound of the present invnetion (final compound concentration 30 μM).

[2] = target: T1, ZAP-70 (Homo sapiens, UniProt P43403); assay: ZAP-70 inhibition assay (standard coupled enzyme assay); type: biochemical; settings: 100 μM ATP, 20 μM poly-4EY peptide, 30° C., 60 nM ZAP-70
T1 sequence (P43403 1-619): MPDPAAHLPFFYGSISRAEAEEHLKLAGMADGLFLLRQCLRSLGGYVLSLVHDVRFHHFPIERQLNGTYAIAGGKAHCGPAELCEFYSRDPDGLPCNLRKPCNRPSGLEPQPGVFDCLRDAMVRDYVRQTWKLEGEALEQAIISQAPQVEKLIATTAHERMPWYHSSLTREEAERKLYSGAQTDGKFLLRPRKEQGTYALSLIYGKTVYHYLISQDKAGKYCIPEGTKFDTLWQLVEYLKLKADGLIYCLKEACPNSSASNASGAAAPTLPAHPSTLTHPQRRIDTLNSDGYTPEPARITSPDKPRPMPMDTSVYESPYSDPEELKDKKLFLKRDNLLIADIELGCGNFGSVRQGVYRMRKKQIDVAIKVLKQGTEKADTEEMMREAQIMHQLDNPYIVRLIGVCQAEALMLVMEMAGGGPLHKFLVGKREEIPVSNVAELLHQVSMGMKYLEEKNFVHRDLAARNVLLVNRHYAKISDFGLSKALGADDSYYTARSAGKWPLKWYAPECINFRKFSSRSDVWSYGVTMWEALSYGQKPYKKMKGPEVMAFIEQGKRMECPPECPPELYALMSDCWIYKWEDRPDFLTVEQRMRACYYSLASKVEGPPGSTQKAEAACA
Method: Compounds were screened for their ability to inhibit ZAP-70 using a standard coupled enzyme assay (Fox et al., Protein Sci. 1998, 7, 2249). Assays were carried out in a mixture of 100 mM HEPES (pH 7.5), 10 mM MgCl2, 25 mM NaCl, 2 mM DTT and 3% DMSO. Final substrate concentrations in the assay were 100 μM ATP (Sigma Chemicals) and 20 μM peptide (poly-4EY, Sigma Chemicals). Assays were carried out at 30° C. and 60 nM ZAP-70. Final concentrations of the components of the coupled enzyme system were 2.5 mM phosphoenolpyruvate, 300 μM NADH, 30 μg/ml pyruvate kinase and 10 μg/ml lactate dehydrogenase.
An assay stock buffer solution was prepared containing all of the reagents listed above, with the exception of ZAP-70 and the test compound of interest of the present invention. 55 μl of the stock solution was placed in a 96 well plate followed by addition of 2 μl of DMSO stock containing serial dilutions of the test compound of the present invention (typically starting from a final concentration of 15 μM). The plate was preincubated for 10 minutes at 30° C. and the reaction initiated by addition of 10 μl of enzyme (final concentration 60 nM). Initial reaction rates were determined with a Molecular Devices SpectraMax Plus plate reader over a 15 minute time course. Ki data was calculated from non-linear regression analysis using the Prism software package (GraphPad Prism version 3.0a for Macintosh, GraphPad Software, San Diego Calif., USA).

[3] = coupled enzyme assay, 200 μM ATP, 4 μM poly Gly-Tyr peptide, 30° C., read-out: Ki (SYK)

Ki [1, 3] [µM] | Ki [2] [µM] | Ki [1] [µM] | SMILES
≤ 5 | ≤ 5 |  | Cc1cc(C)cc(Nc2nccc(-c3nc(COC(N)=O)cs3)n2)c1 [Example I-77]
≤ 5 | ≤ 5 |  | CC(=O)Nc1cccc(Nc2nccc(-c3ncc(C)s3)n2)c1 [Example I-78]
≤ 5 | ≤ 5 |  | Cc1cnc(-c2ccnc(Nc3ccc([N+](=O)[O-])cc3)n2)s1 [Example I-79]
≤ 5 | ≤ 5 |  | Cc1cnc(-c2ccnc(NC3CCCC3)n2)s1 [Example I-81]
≤ 5 | ≤ 5 |  | COc1cc(Nc2nccc(-c3ncc(CO)s3)n2)cc(C(F)(F)F)c1 [Example I-83]
 | ≤ 5 | ≤ 5 | COc1cc(Nc2nccc(-c3nc(CO)cs3)n2)cc(C(F)(F)F)c1 [Example I-84]
≤ 5 | ≤ 5 |  | CCCc1cnc(-c2ccnc(Nc3cc(C)cc(C)c3)n2)s1 [Example I-85]
≤ 5 | ≤ 5 |  | Cc1cc(C)cc(Nc2nccc(-c3ncc(CN4CCC[C@H]4CO)s3)n2)c1 [Example I-86]
≤ 5 | ≤ 5 |  | Cc1cc(C)cc(Nc2nccc(-c3ncc(CN(C)CCO)s3)n2)c1 [Example I-87]
≤ 5 | ≤ 5 |  | Cc1cc(C)cc(Nc2nccc(-c3ncc(CNCCCO)s3)n2)c1 [Example I-88]
≤ 5 | ≤ 5 |  | Cc1cnc(-c2ccnc(Nc3cc(N)cc(C(F)(F)F)c3)n2)s1 [Example I-89]
≤ 5 | ≤ 5 |  | Cc1cnc(-c2ccnc(Nc3cccc(C#N)c3)n2)s1 [Example I-90]
≤ 5 | ≤ 5 |  | Cc1cnc(-c2ccnc(Nc3ccc(N4CCOCC4)cc3)n2)s1 [Example I-91]
≤ 5 | ≤ 5 |  | Cc1cnc(-c2ccnc(Nc3ccc(N(C)C)cc3)n2)s1 [Example I-92]
≤ 5 | ≤ 5 |  | Cc1cc(C)cc(Nc2nccc(-c3ncc(N4CCNCC4)s3)n2)c1 [Example I-93]
≤ 5 | ≤ 5 |  | Cc1cc(C)cc(Nc2nccc(-c3ncc(N(C)C)s3)n2)c1 [Example I-94]
≤ 5 | ≤ 5 |  | Cc1cnc(-c2ccnc(Nc3ccccc3Oc3ccccc3)n2)s1 [Example I-95]
≤ 5 | ≤ 5 |  | Cc1cnc(-c2ccnc(Nc3ccc(F)cc3F)n2)s1 [Example I-97]
≤ 5 | ≤ 5 |  | Cc1cnc(-c2ccnc(Nc3c(C)cccc3C)n2)s1 [Example I-100]

Ki [1, 3] [µM] | Ki [2] [µM] | Ki [1] [µM] | SMILES
≤ 5 | ≤ 5 |  | Cc1cnc(-c2ccnc(Nc3ccc(O)c(C)c3)n2)s1 [Example I-102]
≤ 5 | ≤ 5 |  | CCCc1ccccc1Nc1nccc(-c2ncc(C)s2)n1 [Example I-103]
≤ 5 | ≤ 5 |  | COC(=O)c1ccc(Nc2nccc(-c3ncc(C)s3)n2)cc1C [Example I-106]
≤ 5 | ≤ 5 |  | Cc1cnc(-c2ccnc(Nc3cc(O)cc(C(F)(F)F)c3)n2)s1 [Example I-109]
≤ 5 | ≤ 5 |  | Cc1cnc(-c2ccnc(Nc3ccc(NC(=O)OC(C)(C)C)cc3)n2)s1 [Example I-110]
≤ 5 | ≤ 5 |  | Cc1cnc(-c2ccnc(Nc3cccc(CO)c3)n2)s1 [Example I-111]
≤ 5 | ≤ 5 |  | Cc1cnc(-c2ccnc(Nc3ccc4sc(C)nc4c3)n2)s1 [Example I-114]
≤ 5 | ≤ 5 |  | CNC(=O)c1cnc(-c2ccnc(Nc3cc(C)cc(C)c3)n2)s1 [Example I-115]
≤ 5 | ≤ 5 |  | CC(=O)c1ccc(Nc2nccc(-c3ncc(C)s3)n2)cc1 [Example I-116]
≤ 5 | ≤ 5 |  | Cc1cc(C)cc(Nc2nccc(-c3ncc(C(=O)O)s3)n2)c1 [Example I-118]
≤ 5 | ≤ 5 |  | Cc1cc(C)cc(Nc2nccc(-c3nc(C)c(CCOC4CCCCO4)s3)n2)c1 (stereo not shown) [Example I-119]
≤ 5 | ≤ 5 |  | Cc1cnc(-c2ccnc(Nc3ccc(C(C)(C)C)cc3)n2)s1 [Example I-120]
≤ 5 | ≤ 5 |  | COC(=O)c1cc(Nc2nccc(-c3ncc(C)s3)n2)cc(C(=O)OC)c1 [Example I-121]
≤ 5 | ≤ 5 |  | COc1cc(Nc2nccc(-c3ncc(C)s3)n2)cc(OC)c1OC [Example I-122]
 | ≤ 5 | ≤ 5 | Cc1cc(C)cc(Nc2nccc(-c3nc(C)c(CCO)s3)n2)c1 [Example I-123]
≤ 5 | ≤ 5 |  | Cc1cc(C)cc(Nc2nccc(-c3ncc(CNc4cccnc4)s3)n2)c1 [Example I-124]
≤ 5 | ≤ 5 |  | Cc1cc(C)cc(Nc2nccc(-c3ncc(CNc4ccncc4)s3)n2)c1 [Example I-125]
≤ 5 | ≤ 5 |  | Cc1cnc(-c2ccnc(Nc3ccc4c(c3)OCCO4)n2)s1 [Example I-127]
≤ 5 | ≤ 5 |  | Cc1cnc(-c2ccnc(Nc3ccc4[nH]nnc4c3)n2)s1 [Example I-128]

Ki [1, 3] [µM] | Ki [2] [µM] | Ki [1] [µM] | SMILES
≤ 5 | ≤ 5 |  | CSc1cccc(Nc2nccc(-c3ncc(C)s3)n2)c1 [Example I-130]
≤ 5 | ≤ 5 |  | CSc1ccc(Nc2nccc(-c3ncc(C)s3)n2)cc1 [Example I-131]
≤ 5 | ≤ 5 |  | Cc1cc(C)cc(Nc2nccc(-c3ncc(C(=O)N4CCNCC4)s3)n2)c1 [Example I-134]
≤ 5 | ≤ 5 |  | Cc1cnc(-c2ccnc(Nc3ccc4ncsc4c3)n2)s1 [Example I-135]
≤ 5 | ≤ 5 |  | Cc1cnc(-c2ccnc(Nc3ccc4[nH]nc(C)c4c3)n2)s1 [Example I-136]
≤ 5 | ≤ 5 |  | Cc1cc(C)cc(Nc2nccc(-c3ncc(C(=O)Nc4ccccc4)s3)n2)c1 [Example I-137]
≤ 5 | ≤ 5 |  | Cc1cc(C)cc(Nc2nccc(-c3ncc(C(=O)NCCN)s3)n2)c1 [Example I-138]
≤ 5 | ≤ 5 |  | Cc1cnc(-c2ccnc(Nc3ccc(N)cc3)n2)s1 [Example I-140]
≤ 5 | ≤ 5 |  | Cc1cc(C)cc(Nc2nccc(-c3ncc(CNc4ccccc4)s3)n2)c1 [Example I-141]
≤ 5 | ≤ 5 |  | Cc1cc(C)cc(Nc2nccc(-c3ncc(NCCN)s3)n2)c1 [Example I-142]
≤ 5 | ≤ 5 |  | COc1cc(Nc2nccc(-c3ncc(Cl)s3)n2)cc(OC)c1OC [Example I-143]
≤ 5 | ≤ 5 |  | OCc1cnc(-c2ccnc(Nc3cc(O)cc(C(F)(F)F)c3)n2)s1 [Example I-144]
≤ 5 | ≤ 5 |  | COc1cc(Nc2nccc(-c3ncc(N4CCNCC4)s3)n2)cc(OC)c1OC [Example I-145]
 | ≤ 5 | ≤ 5 | OCc1csc(-c2ccnc(Nc3cc(O)cc(C(F)(F)F)c3)n2)n1 [Example I-146]
≤ 5 | ≤ 5 |  | CC(=O)OCc1cnc(-c2ccnc(Nc3ccccc3OCc3ccccc3)n2)s1 [Example I-149]
≤ 5 | ≤ 5 |  | OCc1cnc(-c2ccnc(Nc3ccccc3OCc3ccccc3)n2)s1 [Example I-150]
≤ 5 | ≤ 5 |  | Cc1cnc(-c2ccnc(Nc3ccncc3)n2)s1 [Example I-152]
≤ 5 | ≤ 5 |  | Cc1cnc(-c2ccnc(Nc3ccc(NC(=O)CCNC(=O)OC(C)(C)C)cc3)n2)s1 [Example I-153]
